Reference: patent publication US20250064846A1, “TREATMENT AND PREVENTION OF TRIGEMINAL NEURALGIA” (THE JOHNS HOPKINS UNIVERSITY, priority 2022, published 2025)
Entries after “also recorded” stand apart in the source; their conditions may differ.

Legend:
[1] = system: constrictive mouse model of trigeminal neuralgia; assay: Mechanical allodynia (Von Frey filament) after constriction of the maxillary nerve; type: in vivo; settings: for mechanical allodynia (sensitivity to crude touch): WT mice, i.p. daily for two days before surgery and daily after behavior testing, sulforaphane, exemestane, letrozole 10 mg/kg, JQ-1 40 mg/kg, ascorbate 100 mg/kg, vs vehicle; for persistence of effects after treatment: daily i.p. dosing just after behavior testing
Procedure: (§1) Constriction of the Maxillary Nerve Constriction of the maxillary division of trigeminal nerve was performed as previously described (See Benedetti, A., et al., Biochimica Et Biophysica Acta Bba—Lipids Lipid Metabolism 620, 281-296 (1980) and Vos, B., et al J Neurosci 14, 2708-2723 (1994)). The procedure was performed under direct visualization and control with a surgical microscope. Mice were first anesthetized with ketamine (100 mg/kg, i.p.) and xylazine (12.5 mg/kg, i.p.) and monitored by pinching the skin between the toes with forceps and monitoring for withdrawal. Mice were restrained with adhesive tape to a sterilized polystyrene board. Upon sufficient anesthesia, the scalp was shaved and an anterior to posterior skin incision was made at the midline to expose the nasal and maxillary bones. The maxillary nerve was exposed and carefully dissected free from the surrounding connective tissue. The distal end of the maxillary nerve was then loosely constricted using 8-0 silk sutures as a ligature. The sutures were tied using a slip knot followed by a normal knot, after which any remaining suture was cut free. The incision was then closed with a 4-0 silk suture. In the sham procedure, the left maxillary nerve was exposed but not constricted. Mice were monitored and rehydrated until fully recovered from anesthesia.
(§2) Pharmacologic Treatments Mice were dosed with either sulforaphane (10 mg/kg, i.p.), exemestane (10 mg/kg, i.p.), letrozole (10 mg/kg, i.p.), (+)-JQ-1 (40 mg/kg, i.p.), (−)-JQ-1 (40 mg/kg, i.p.), or ascorbate (100 mg/kg, i.p.) as indicated below. Mice were first dosed daily for two days before surgery and again daily just after behavior testing. For local exemestane treatment, exemestane (5 μL, 25 μg total) was applied directly to the maxillary nerve. Mice received a single dose during surgery. Mice were dosed with AM-0902 (30 mg/kg, p.o.). Mice were treated with AM-0902 were dosed 30 min prior to behavior testing. Mice were dosed with tamoxifen (75 mg/kg, i.p.). Mice were dosed once every 24 hrs over 5 consecutive days. Behavioral and molecular tests were only performed 7 or more days after the final tamoxifen injection.
Mechanical Allodynia Mechanical allodynia was assessed in C57BL/6J, TRPA1^+/+, TRPA1^−/−, Keap1(f/f), and Keap1(f/f/CMV-CreER mice using a Von Frey filament as previously outlined (See Benedetti, A., et al., Biochimica Et Biophysica Acta Bba—Lipids Lipid Metabolism 620, 281-296 (1980) and Vos, B., et al J Neurosci 14, 2708-2723 (1994)). Animals were placed individually in transparent plastic boxes and allowed to acclimate to the environment for at least 30 min before testing. After habituation, a 0.04 g force Von Frey filament was used to stimulate the territory innervated by the maxillary nerve, including the vibrissal skin pad. Each mouse's response to the filament was scored from 0-4 on the scale below. Each mouse was scored ten times per day. Changes in mechanical allodynia were considered relative to sham- or vehicle-treated animal controls. Behavior was assessed concomitantly or in a blocked manner with consideration for both genotype and treatment. • 0—no response • 1—non-defensive response to the stimulus (e.g., mouse non-defensively explores filament) • 2—withdrawal response (e.g., mouse turns head away from filament) • 3—escape/attack response (e.g., mouse moves body away from filament and assumes crouching position against the box wall; actively attacks filament by biting and/or grabbing) • 4—asymmetric face grooming (e.g., mouse wipes stimulated facial area in uninterrupted series of at least three face-wash strokes)

TRPA1 = target: T1, TRPA1 (Homo sapiens, UniProt O75762); assay: Calcium imaging of HEK293 cells transiently expressing WT TRPA1; type: cell-based; settings: for inhibition of TRPA1 channel activity: applied after 4-HNE, 1 μM exemestane, 100 μM JQ-1, 10 μM sulforaphane; for activation of TRPA1: exemestane 1-100 μm, JQ-1 as high as 100 μM, 10 μM sulforaphane
T1 construct: expressed in transfected cells; host or cells: HEK293
T1 sequence (O75762 whole entry): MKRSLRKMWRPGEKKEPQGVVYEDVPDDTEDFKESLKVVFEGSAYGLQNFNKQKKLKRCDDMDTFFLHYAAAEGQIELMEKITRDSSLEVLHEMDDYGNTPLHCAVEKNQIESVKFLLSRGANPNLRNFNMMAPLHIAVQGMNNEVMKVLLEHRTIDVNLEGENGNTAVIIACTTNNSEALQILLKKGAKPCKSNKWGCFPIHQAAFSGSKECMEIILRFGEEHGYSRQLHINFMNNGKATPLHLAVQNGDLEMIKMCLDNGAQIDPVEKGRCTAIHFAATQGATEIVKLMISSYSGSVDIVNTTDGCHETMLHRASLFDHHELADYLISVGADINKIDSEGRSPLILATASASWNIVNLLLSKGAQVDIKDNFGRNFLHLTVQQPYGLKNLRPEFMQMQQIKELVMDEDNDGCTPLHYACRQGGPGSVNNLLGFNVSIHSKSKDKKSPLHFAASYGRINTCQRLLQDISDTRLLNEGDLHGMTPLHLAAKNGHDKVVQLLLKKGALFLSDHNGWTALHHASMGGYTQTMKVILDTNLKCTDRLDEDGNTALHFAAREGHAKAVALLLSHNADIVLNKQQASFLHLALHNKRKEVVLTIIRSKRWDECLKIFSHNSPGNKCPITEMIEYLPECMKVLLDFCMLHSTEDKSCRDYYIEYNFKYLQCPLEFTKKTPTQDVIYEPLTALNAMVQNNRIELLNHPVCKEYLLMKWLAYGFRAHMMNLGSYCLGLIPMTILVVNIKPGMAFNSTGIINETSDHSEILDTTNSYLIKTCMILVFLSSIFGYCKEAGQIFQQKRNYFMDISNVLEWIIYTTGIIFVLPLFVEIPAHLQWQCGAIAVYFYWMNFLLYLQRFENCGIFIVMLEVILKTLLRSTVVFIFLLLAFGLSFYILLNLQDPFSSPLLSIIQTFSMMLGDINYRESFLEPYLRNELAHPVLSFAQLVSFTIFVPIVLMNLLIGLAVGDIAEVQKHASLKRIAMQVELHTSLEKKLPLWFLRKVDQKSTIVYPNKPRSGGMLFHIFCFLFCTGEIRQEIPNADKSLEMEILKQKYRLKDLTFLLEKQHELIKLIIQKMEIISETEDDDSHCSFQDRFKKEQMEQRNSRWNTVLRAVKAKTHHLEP
Procedure: Calcium Imaging and Analysis Calcium imaging and analysis was performed as previously described (See Meixiong, J. et al. Elife 8, (2019)). Briefly, cells were imaged in calcium imaging buffer (CIB; 10 mM HEPES, 1.2 mM NaHCO3, 130 mM NaCl, 3 mM KCl, 2.5 mM CaCl2, 0.6 mM MgCl2, 20 mM glucose, and 20 mM sucrose at pH 7.4 and 290-300 mOsm). To monitor changes in intracellular [Ca^2+]([Ca^2+]i), cells were loaded with either 1 μM Fura 2-AM (HEK293 cells) or 1 μM Fluo 4-AM (trigeminal neurons) for 30 min in the dark at 37° C. in CIB just prior to imaging. With Fura 2-AM, emission at 510 nm was monitored following excitation at both 340 nm and 380 nm. With Fluo 4-AM, emission at 520 nm was monitored following excitation at 488 nm. Cells were identified as positively responding if [Ca^2+]i rose by 15% compared to baseline. Damaged, detached, high-baseline, and motion-activated cells were excluded from analysis.
HEK293 cells were plated on poly-D-lysine-coated coverslips and transiently transfected with the vector backbone or constructs encoding WT or mutant TRPA1. Unless otherwise noted, cells were imaged for 30 s to establish a baseline before compounds were added. Vehicle was first applied for 30 s, after which 100 μM iodoacetamide, 1 mM H2O2, or 100 μM 4-HNE was applied. CSF from cases and controls was diluted into calcium imaging buffer 1:50 prior to each trial. 50 μM of the non-selective TRP channel inhibitor ruthenium red was applied at the end of every imaging trial.

[2] = system: constrictive mouse model of trigeminal neuralgia; assay: Cold allodynia (ice-cold acetone) after constriction of the maxillary nerve; type: in vivo; settings: for cold allodynia (ice-cold acetone): WT mice, i.p. daily for two days before surgery and daily after behavior testing, sulforaphane, exemestane, letrozole 10 mg/kg, JQ-1 40 mg/kg, ascorbate 100 mg/kg, vs vehicle
Procedure: as §1, §2
Cold Allodynia Cold allodynia was assessed in C57BL/6J, TRPA1^+/+, TRPA1^−/−, Keap1(f/f), and Keap1(f/f)/CMV-CreER mice using ice-cold acetone as previously outlined (See Yoon, C., et al., Pain 59, 369-376 (1994)). Animals were placed individually in transparent plastic boxes and allowed to acclimatize to the environment for at least 30 min before testing. After habituation, 20 μl of cold acetone was applied to the ligated vibrissal pad skin surface. Cold allodynia was measured as the average time spent wiping the region in a 60 s period, with a maximum of 5 seconds between bouts of wiping. Allodynia was measured three times with 10 min between intervals. Changes in cold allodynia were considered relative to sham- or vehicle-treated animal controls. Behavior was assessed concomitantly or in a blocked manner with consideration for both genotype and treatment.

[3] = single local treatment, exemestane 25 μg/site applied directly to the maxillary nerve during surgery

Row | SMILES | mechanical allodynia (sensitivity to crude touch) [1] | mechanical allodynia (sensitivity to crude touch) ([1]; listed as (+)-JQ-1) | persistence of effects after treatment [1] | inhibition of TRPA1 channel activity (TRPA1) | activation of TRPA1 (TRPA1) | cold allodynia (ice-cold acetone) [2] | cold allodynia (ice-cold acetone) ([2]; listed as (+)-JQ-1) | duration of analgesic effect ([1]; mouse, in vivo) | mechanical allodynia [1, 3] | cold allodynia [2, 3]
1 | Cc1sc2c(c1C)C(c1ccc(Cl)cc1)=N[C@@H](CC(=O)OC(C)(C)C)c1nnc(C)n1-2 [JQ-1, (S)-tert-butyl 2-(4-(4-chlorophenyl)-2,3,9-trimethyl-6H-thieno[3,2-f][1,2,4]triazolo[4,3-a][1,4]diazepin-6-yl)acetate] | much less sensitive | lowered | 24 h | Neither sulforaphane, exemestane, nor JQ-1 inhibited TRPA1 channel activity | do not activate TRPA1 | much less sensitive | lowered | – | – | –
2 | C=C1C[C@@H]2[C@H](CC[C@]3(C)C(=O)CC[C@@H]23)[C@@]2(C)C=CC(=O)C=C12 [exemestane, 6-methylenandrosta-1,4-diene-3,17-dione] | much less sensitive; also recorded: lowered | – | 24 h | Neither sulforaphane, exemestane, nor JQ-1 inhibited TRPA1 channel activity | did not activate TRPA1 | much less sensitive; also recorded: lowered | – | persists over the course of days to weeks | lessened | lessened
3 | C[S+]([O-])CCCCN=C=S (centres unmarked) [sulforaphane, 1-isothiocyanato-4-(methanesulfinyl)butane] | less sensitive | – | 24 h | Neither sulforaphane, exemestane, nor JQ-1 inhibited TRPA1 channel activity | Neither sulforaphane nor JQ-1 activate TRPA1 | less sensitive | – | – | – | –
